Test results published in PubChem BioAssay AID256 (DTP/NCI, 2004).
Inconclusive results and toxic doses are left out.

Test system: CD2F1 mice, L1210 leukemia ip, survival T/C
Test: NCI In Vivo Anticancer Drug Screen. Data for tumor model L1210 Leukemia (intraperitoneal) in CD2F1 (CDF1) mice
Conditions: endpoint: mean survival time, higher = longer survival
Outline: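 Activity against a transplanted murine tumor was judged by comparing the compound group with a vehicle group. The outcome in the treated animals was divided by that in the controls.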

[1] = dose: 100.0 mg/kg/injection, schedule: Q04DX002 (ip), vehicle: saline with Tween-80
[2] = dose: 200.0 mg/kg/injection, schedule: Q04DX002 (ip), vehicle: saline with Tween-80
[3] = dose: 400.0 mg/kg/injection, schedule: Q04DX002 (ip), vehicle: saline with Tween-80
[4] = dose: 100.0 mg/kg/injection, schedule: Q04DX003 (ip), vehicle: saline with Tween-80
[5] = dose: 200.0 mg/kg/injection, schedule: Q04DX003 (ip), vehicle: saline with Tween-80
[6] = dose: 400.0 mg/kg/injection, schedule: Q04DX003 (ip), vehicle: saline with Tween-80

## O=C(CCBr)N1CCN(C(=O)CCBr)CC1
dose: 4.0 mg/kg/injection, schedule: Q03HX016 (ip), vehicle: saline
  T/C: 100 % of control
dose: 4.0 mg/kg/injection, schedule: Q03HX024 (ip), vehicle: saline
  T/C: 100 % of control
dose: 8.0 mg/kg/injection, schedule: Q03HX016 (ip), vehicle: saline
  T/C: 101 % of control
dose: 8.0 mg/kg/injection, schedule: Q03HX016 (oral), vehicle: saline
  T/C: 93 % of control
dose: 8.0 mg/kg/injection, schedule: Q03HX024 (ip), vehicle: saline
  T/C: 110 % of control
dose: 8.0 mg/kg/injection, schedule: Q03HX024 (oral), vehicle: saline
  T/C: 119 % of control
dose: 16.0 mg/kg/injection, schedule: Q03HX008 (ip), vehicle: saline
  T/C: 120 % of control
dose: 16.0 mg/kg/injection, schedule: Q03HX008 (oral), vehicle: saline
  T/C: 124 % of control
dose: 16.0 mg/kg/injection, schedule: Q03HX016 (ip), vehicle: saline
  T/C: 117 % of control
dose: 16.0 mg/kg/injection, schedule: Q03HX016 (oral), vehicle: saline
  T/C: 100 % of control
dose: 16.0 mg/kg/injection, schedule: Q03HX024 (ip), vehicle: saline
  T/C: 172 % of control
dose: 16.0 mg/kg/injection, schedule: Q03HX024 (oral), vehicle: saline
  T/C: 123 % of control
dose: 25.0 mg/kg/injection, schedule: Q01DX009 (ip), vehicle: saline
  T/C: 124 % of control
dose: 25.0 mg/kg/injection, schedule: Q03DX003 (ip), vehicle: saline
  T/C: 115 % of control
dose: 25.0 mg/kg/injection, schedule: Q04DX003 (ip), vehicle: saline
  T/C: 108 % of control
dose: 32.0 mg/kg/injection, schedule: Q01DX009 (ip), vehicle: saline
  T/C: 161 % of control
dose: 32.0 mg/kg/injection, schedule: Q01DX009 (oral), vehicle: saline
  T/C: 150 % of control
dose: 32.0 mg/kg/injection, schedule: Q03HX008 (ip), vehicle: saline
  T/C: 160 % of control
dose: 32.0 mg/kg/injection, schedule: Q03HX008 (oral), vehicle: saline
  T/C: 151 % of control
dose: 32.0 mg/kg/injection, schedule: Q03HX016 (ip), vehicle: saline
  T/C: 207 % of control
dose: 32.0 mg/kg/injection, schedule: Q03HX016 (oral), vehicle: saline
  T/C: 162 % of control
dose: 32.0 mg/kg/injection, schedule: Q03HX024 (ip), vehicle: saline
  T/C: 101 % of control
dose: 32.0 mg/kg/injection, schedule: Q03HX024 (oral), vehicle: saline
  T/C: 94 % of control
dose: 32.0 mg/kg/injection, schedule: Q04DX003 (ip), vehicle: saline
  T/C: 118 % of control
dose: 32.0 mg/kg/injection, schedule: Q08DX002 (ip), vehicle: saline
  T/C: 98 % of control
dose: 50.0 mg/kg/injection, schedule: Q03DX003 (ip), vehicle: saline
  T/C: 124 % of control
dose: 50.0 mg/kg/injection, schedule: Q04DX003 (ip), vehicle: saline
  T/C: 123 % of control
dose: 64.0 mg/kg/injection, schedule: Q01DX009 (ip), vehicle: saline
  T/C: 156 % of control
dose: 64.0 mg/kg/injection, schedule: Q01DX009 (oral), vehicle: saline
  T/C: 122 % of control
dose: 64.0 mg/kg/injection, schedule: Q04DX003 (ip), vehicle: saline
  T/C: 162 % of control
dose: 64.0 mg/kg/injection, schedule: Q08DX002 (ip), vehicle: saline
  T/C: 115 % of control
dose: 64.0 mg/kg/injection, schedule: Q08DX002 (oral), vehicle: saline
  T/C: 109 % of control
dose: 100.0 mg/kg/injection, schedule: Q01DX007 (ip), vehicle: saline
  T/C: 120 % of control
dose: 100.0 mg/kg/injection, schedule: Q03DX003 (ip), vehicle: saline
  T/C: 167 % of control
dose: 128.0 mg/kg/injection, schedule: Q01DX001 (oral), vehicle: saline
  T/C: 150 % of control
dose: 128.0 mg/kg/injection, schedule: Q01DX009 (oral), vehicle: saline
  T/C: 105 % of control
dose: 128.0 mg/kg/injection, schedule: Q04DX003 (ip), vehicle: saline
  T/C: 176 % of control
dose: 128.0 mg/kg/injection, schedule: Q04DX003 (oral), vehicle: saline
  T/C: 157 % of control
dose: 128.0 mg/kg/injection, schedule: Q08DX002 (ip), vehicle: saline
  T/C: 167 % of control
dose: 256.0 mg/kg/injection, schedule: Q01DX001 (ip), vehicle: saline
  T/C: 157 % of control
dose: 256.0 mg/kg/injection, schedule: Q01DX009 (oral), vehicle: saline
  T/C: 88 % of control
dose: 256.0 mg/kg/injection, schedule: Q08DX002 (ip), vehicle: saline
  T/C: 194 % of control
dose: 256.0 mg/kg/injection, schedule: Q08DX002 (oral), vehicle: saline
  T/C: 156 % of control
dose: 512.0 mg/kg/injection, schedule: Q08DX002 (oral), vehicle: saline
  T/C: 156 % of control

## CCNC(=O)C(=O)NCC
[1]
  T/C: 103 % of control
[2]
  T/C: 100 % of control
[3]
  T/C: 103 % of control

## CC(C)OC(=O)Nc1ccc(F)cc1F
[4]
  T/C: 96 % of control
[5]
  T/C: 102 % of control
[6]
  T/C: 98 % of control

## S=c1cc(-c2ccccc2)ss1
dose: 100.0 mg/kg/injection, schedule: Q01DX009 (ip), vehicle: saline with Tween-80
  T/C: 97 % of control
dose: 200.0 mg/kg/injection, schedule: Q01DX009 (ip), vehicle: saline with Tween-80
  T/C: 97 % of control
dose: 400.0 mg/kg/injection, schedule: Q01DX009 (ip), vehicle: saline with Tween-80
  T/C: 98 % of control

## C[C@]12CCC(=O)C=C1CC[C@@H]1[C@@H]2[C@@H](O)C[C@@]2(C)[C@H]1CC[C@]2(O)C(=O)COP(=O)(O)OCC1OC(n2ccc(N)nc2=O)C(O)C1O (some centres not stated)
dose: 5.0 mg/kg/injection, schedule: Q01DX005 (ip), vehicle: other
  T/C: 104 % of control
dose: 10.0 mg/kg/injection, schedule: Q01DX005 (ip), vehicle: other
  T/C: 110 % of control
dose: 15.0 mg/kg/injection, schedule: Q01DX005 (ip), vehicle: other
  T/C: 115 % of control
dose: 120.0 mg/kg/injection, schedule: Q01DX005 (ip), vehicle: other
  T/C: 150 % of control
dose: 240.0 mg/kg/injection, schedule: Q01DX005 (ip), vehicle: other
  T/C: 162 % of control

## C=COCCCCCCCCCCCCCCCCCC
dose: 100.0 mg/kg/injection, schedule: Q04DX003 (ip), vehicle: other
  T/C: 108 % of control
dose: 200.0 mg/kg/injection, schedule: Q04DX003 (ip), vehicle: other
  T/C: 108 % of control
dose: 400.0 mg/kg/injection, schedule: Q04DX003 (ip), vehicle: other
  T/C: 98 % of control

## CN(C)C(=O)Nc1ccc(Br)cc1
[1]
  T/C: 86 % of control
[2]
  T/C: 93 % of control
[3]
  T/C: 93 % of control

## O=c1nc(OCCO)c([N+](=O)[O-])c(C(Cl)(Cl)Cl)[nH]1
[4]
  T/C: 96 % of control
[5]
  T/C: 97 % of control
[6]
  T/C: 89 % of control

## Cc1cc([N+](=O)[O-])cc(C)c1O
[4]
  T/C: 100 % of control
[5]
  T/C: 96 % of control
[6]
  T/C: 100 % of control

## FC(F)(F)/C([S-])=C(/[S-])C(F)(F)F.[Ni].[c-]1[c-][c-][cH-][c-]1
dose: 9.5 mg/kg/injection, schedule: Q01DX001 (ip), vehicle: other
  T/C: 92 % of control
dose: 19.0 mg/kg/injection, schedule: Q01DX001 (ip), vehicle: other
  T/C: 93 % of control

## CCC12C=CC(OC)(CC1)C(C#N)C2 (configuration not stated)
dose: 50.0 mg/kg/injection, schedule: Q04DX002 (ip), vehicle: saline with Tween-80
  T/C: 103 % of control
[1]
  T/C: 100 % of control
[2]
  T/C: 91 % of control

## ClCc1ccc(Cl)c(Cl)c1
dose: 100.0 mg/kg/injection, schedule: Q04DX003 (ip), vehicle: Klucel (hydroxypropylcellulose) (HPC)
  T/C: 102 % of control
dose: 200.0 mg/kg/injection, schedule: Q04DX003 (ip), vehicle: Klucel (hydroxypropylcellulose) (HPC)
  T/C: 102 % of control
dose: 400.0 mg/kg/injection, schedule: Q04DX003 (ip), vehicle: Klucel (hydroxypropylcellulose) (HPC)
  T/C: 102 % of control

## NC(=O)C(F)(F)F
dose: 100.0 mg/kg/injection, schedule: Q01DX009 (ip), vehicle: saline
  T/C: 98 % of control
dose: 200.0 mg/kg/injection, schedule: Q01DX009 (ip), vehicle: saline
  T/C: 98 % of control
dose: 400.0 mg/kg/injection, schedule: Q01DX009 (ip), vehicle: saline
  T/C: 100 % of control

## CC([NH-])CC[NH-].O=[N+]([O-])O.O=[N+]([O-])O.[Pt+2] (configuration not stated)
dose: 6.25 mg/kg/injection, schedule: Q04DX003 (ip), vehicle: saline with Tween-80
  T/C: 169 % of control

## O=C[c-]1[c-][c-][c-][c-]1.[Fe+2].[c-]1[c-][c-][cH-][c-]1
dose: 100.0 mg/kg/injection, schedule: Q01DX001 (ip), vehicle: saline with Tween-80
  T/C: 117 % of control
dose: 200.0 mg/kg/injection, schedule: Q01DX001 (ip), vehicle: saline with Tween-80
  T/C: 100 % of control

## C=CCOP(=O)(OCC=C)C(Cl)(Cl)Cl
dose: 75.0 mg/kg/injection, schedule: Q01DX001 (ip), vehicle: other
  T/C: 109 % of control
dose: 150.0 mg/kg/injection, schedule: Q01DX001 (ip), vehicle: other
  T/C: 97 % of control
dose: 300.0 mg/kg/injection, schedule: Q01DX001 (ip), vehicle: other
  T/C: 109 % of control
